The numbers were not newly measured in PMC3604136 (Nature chemical biology, 2013), which cites them from elsewhere.

The test system of this data set is HIF-1 and HIF-2.

Regarding acriflavine, the HIF isoform inhibition result is “inhibits both HIF-1 and HIF-2”.
